This is an account of results in patent EP0311724A1, “Anxiolytic-R-N-(1-azabicyclo[2.2.2]oct-3-yl) benzamides and thiobenzamides” (SYNTHELABO, priority 1987, dated 1989).

Structures can show the parent of a compound that is named as a salt.

Experiment [1] concerns mouse. Put plainly: Exploratory behaviour of the mouse in a two-compartment box (method of Crawley and Goodwin). It is filed as in vivo. Set-up: key: +: significant increase vs. control; -: significant decrease vs. control; ns: no significant change vs. control. To be noted: dose 0.1-10 mg/kg ip, change vs. control. As for the experimental part: (§1) The anxiolytic activity was determined by the method of Costall et al details of which are to be found in the pharmacology examples later in this specification. In brief, the method involves seeing whether the compound under test reduced the natural anxiety of mice in brightly-lit areas. Anxiolytic activity was also assessed by the method of Crawley and Goodwin (Pharm. Biochem. Behavior (1980), 13,167-170).
Compounds of the invention have been studied in the laboratory animal to evaluate their anxiolytic activity. As a typical compound of the invention, R(+)-4-Amino-N-(3-quinuclidinyl)-5-chloro-2-methoxy benzamide dihydrochloride (R(+)-4-Amino-N-(1-azabicyclo[2.2.2]oct-3-yl)-5-chloro-2-methoxybenzamide dihydrochloride), the compound of Example 14, was investigated for its anxiolytic activity, which was compared with that of the racemate (unresolved product of Example 2) and the corresponding enantiomer of absolute configuration S (product of Comparison Example 1).
The method used in this example was that described by Crawley and Goodwin (Pharm. Biochem. Behavior (1980) 13, 167-170), where aspects of behaviour of the mouse are compared in a lit zone and a dark zone of a two-compartment box.

In experiment [2] the test system is Naive male albino BKW mice. Put plainly: Anti-anxiety test (light/dark two-compartment box, method of Costall et al). It is filed as in vivo. Conditions: 40 min pretreatment, n = 5. As for the experimental part: as §1
Naive male albino BKW mice, 25-30g, were used in all experiments. 10 mice were normally housed in each cage and given free access to food and water. The mice were kept on a 12h light and 12h dark cycle with lights off at 8.00am and on at 8.00pm.
The apparatus used for the detection of changes in anxiety consisted of an open topped box (45 x 27 x 27cm high) one third painted black and illuminated under a dim red light (1 x 60W) and partitioned from the remainder of the box which was painted white and brightly illuminated with a 100W light source located 17cm above the box. Access between these areas was enabled by means of a 7.5 x 7.5cm opening located at floor level in the centre of the partition. The floor area was lined into 9cm squares. The test was conducted between 13.00 and 18.00h in a quiet, darkened room illuminated with red light only. Animals were thus taken in a dark container from a dark holding room to the dark testing room.
Animals that had received drug or vehicle injections were placed individually into the centre of the white area and their behaviour observed over a 5 min period by remote video recording.
Animals were used in treatment groups of 5 and vehicle controls were run on each day of testing. Results were anlysed using Single-Factor Analysis of Variance followed by Dunnett's procedure for comparing all treatments with control.
Compounds of Example 14 and Comparison Example 1 were dissolved in minimum HCI made up to volume with distilled water. Doses were expressed as the base and were administered as a 40 min pretreatment in a volume of 1 mIi100g body weight. Administration was by the subcutaneous route.

The mark [3] stands for this setting: Black Section, 0.1 mg/kg subcutaneous.
Where [4] appears, read: Black Section, 1.0 mg/kg subcutaneous.
Where [5] appears, read: Black Section, 10.0 mg/kg subcutaneous.
Setting [6] is: White Section, 0.1 mg/kg subcutaneous.
The mark [7] stands for this setting: White Section, 1.0 mg/kg subcutaneous.
Where [8] appears, read: White Section, 10.0 mg/kg subcutaneous.

As for `COc1cc(N)c(Cl)cc1C(=O)NC1CN2CCC1CC2` (racemic) [Compound of Example 2], in experiment [1] (Dark zone), the Movement activity result is listed as “-” and the Straightenings result is reported as “-”. For the same compound, in experiment [1] (Light zone), the Movement activity result is reported as “+” and the Straightenings entry is given as “+”.
With `COc1cc(N)c(Cl)cc1C(=O)N[C@H]1CN2CCC1CC2` [Example 14, R(+)-4-Amino-N-(3-quinuclidinyl)-5-chloro-2-methoxybenzamide hydrochloride], the results for the Movement activity entry in experiment [1] (Dark zone) and in experiment [1] (Light zone) were “-” and “+”, respectively. Also, the Straightenings result in experiment [1] (Dark zone) is “-”; in experiment [1] (Light zone) it was “+”. Further, the Crossings/5min is on record as 14.6±1.5^+++ in experiment [2] (setting [3]); 13.6±1.2^+++ in experiment [2] (setting [4]); 17.6±1.4^+++ in experiment [2] (setting [5]); 52.9±5.0 in experiment [2] (setting [6]); 87.4±7.6 in experiment [2] (setting [7]); 73.7±7.2 in experiment [2] (setting [8]). Besides, the Rearings/5 min in experiment [2] (setting [3]) is on record as 13.6±1.1^+++; in experiment [2] (setting [4]), 13.0±1.4^+++; in experiment [2] (setting [5]) it was 14.7±1.2^+++; in experiment [2] (setting [6]) it was 64.8±6.0; in experiment [2] (setting [7]), 82.4±7.4; in experiment [2] (setting [8]), 76.2±7.6.
For `COc1cc(N)c(Cl)cc1C(=O)N[C@@H]1CN2CCC1CC2` [Comparison Example 1, S(-)-4-Amino-N-(3-quinuclidinyl)-5-chloro-2-methoxybenzamide hydrochloride], the Movement activity result in experiment [1] (Dark zone) and in experiment [1] (Light zone) was “ns” in each case. Moreover, the Straightenings result in experiment [1] (Dark zone) and in experiment [1] (Light zone) was “ns” each time. In addition, the Crossings/5min in experiment [2] (setting [3]) is listed as 39.4±3.0; in experiment [2] (setting [4]), 37.6±3.8; in experiment [2] (setting [5]) it was 50.8±5.2; in experiment [2] (setting [6]), 23.2±2.3; in experiment [2] (setting [7]) it was 26.8±2.7; in experiment [2] (setting [8]), 24.7±2.1. Also, the Rearings/5 min was 35.2±3.1 in experiment [2] (setting [3]); 38.1±3.2 in experiment [2] (setting [4]); 48.3±4.1 in experiment [2] (setting [5]); 23.0±2.1 in experiment [2] (setting [6]); 21.5±2.0 in experiment [2] (setting [7]); 24.0±1.9 in experiment [2] (setting [8]).
